Reference: patent US20230149415A1, “METHODS AND COMPOSITIONS FOR TREATING CANCER” (Engine Biosciences Pte. Ltd., priority 2020, published 2023)

Assays:
Wee1 = Wee1 (Homo sapiens, UniProt P30291); assay: selective binding assay for Wee1; details: in vitro potency
PKMYT1 = target: T1, PKMYT1 (Homo sapiens, UniProt Q99640); assay: selective binding assay for PKMYT1; details: in vitro potency
T1 sequence (Q99640 1-499): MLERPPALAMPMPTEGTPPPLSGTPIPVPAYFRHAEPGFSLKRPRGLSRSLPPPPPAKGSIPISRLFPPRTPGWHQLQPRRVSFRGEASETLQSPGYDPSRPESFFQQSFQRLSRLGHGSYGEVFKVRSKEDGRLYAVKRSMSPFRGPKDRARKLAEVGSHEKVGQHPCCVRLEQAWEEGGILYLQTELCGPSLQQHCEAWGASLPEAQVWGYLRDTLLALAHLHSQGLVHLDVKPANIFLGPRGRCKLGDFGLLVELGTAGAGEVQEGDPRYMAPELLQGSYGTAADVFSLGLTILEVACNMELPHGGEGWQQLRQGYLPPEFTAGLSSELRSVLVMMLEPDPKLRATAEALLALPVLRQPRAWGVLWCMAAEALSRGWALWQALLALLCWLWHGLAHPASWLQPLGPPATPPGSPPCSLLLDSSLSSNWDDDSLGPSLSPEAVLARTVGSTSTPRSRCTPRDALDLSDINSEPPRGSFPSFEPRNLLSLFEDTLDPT

Wee1, sequence (P30291 whole entry): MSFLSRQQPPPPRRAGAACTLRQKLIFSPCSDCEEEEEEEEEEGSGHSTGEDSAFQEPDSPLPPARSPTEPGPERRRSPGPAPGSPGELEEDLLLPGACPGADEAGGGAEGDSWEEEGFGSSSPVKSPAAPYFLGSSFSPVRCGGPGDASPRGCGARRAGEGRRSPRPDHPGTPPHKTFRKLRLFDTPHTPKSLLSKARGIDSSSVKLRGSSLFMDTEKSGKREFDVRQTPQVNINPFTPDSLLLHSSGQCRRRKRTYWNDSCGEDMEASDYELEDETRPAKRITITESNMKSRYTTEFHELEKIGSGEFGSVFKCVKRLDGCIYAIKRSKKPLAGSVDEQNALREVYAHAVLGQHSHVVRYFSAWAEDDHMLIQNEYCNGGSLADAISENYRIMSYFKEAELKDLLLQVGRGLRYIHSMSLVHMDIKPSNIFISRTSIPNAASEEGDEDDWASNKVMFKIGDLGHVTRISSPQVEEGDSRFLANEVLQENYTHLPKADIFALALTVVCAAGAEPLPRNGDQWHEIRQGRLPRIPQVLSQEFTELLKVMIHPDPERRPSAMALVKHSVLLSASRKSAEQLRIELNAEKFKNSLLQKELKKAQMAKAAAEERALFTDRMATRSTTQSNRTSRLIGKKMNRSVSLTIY

SMILES | IC50 (Wee1) | IC50 (PKMYT1)
Cn1c(=O)c(-c2c(Cl)cccc2Cl)cc2cnc(Nc3ccc(N4CCOCC4)cc3)nc21 [PD173952, 6-(2,6-dichlorophenyl)-8-methyl-2-((4-morpholinophenyl)amino)pyrido[2,3-d]pyrimidin-7(8H)-one] | 5.3 nM | 46 nM
CCN(CC)CCOc1ccc(Nc2ncc3cc(-c4c(Cl)cccc4Cl)c(=O)n(C)c3n2)cc1 [PD0166285, 6-(2,6-dichlorophenyl)-2-((4-(2-(diethylamino)ethoxy)phenyl)amino)-8-methylpyrido[2,3-d]pyrimidin-7(8H)-one] |  | 8.2 nM
